“And” between values parts separate entries of the source, which are not always exact repeats. Identical values can stand only once. Counter-ions that a name gives are not always drawn.
Molecular target: T1, mice serum BChE (Mus musculus, UniProt Q03311)
T1 construct: mice serum was the source of BChE; from tissue; host or cells: mouse serum
Experiment: BChE inhibition, Ellman spectrophotometric assay, mice serum
Assay type: biochemical
Conditions: mean ± SEM, at least three measures; butyrylthiocholine iodide substrate
Protocol: (§1) AChE inhibiting activities were measured by a spectrophotometric assay developed by Ellman et al. It was based on the fact that AChE catalyzes the hydrolysis of acetylcholine, releasing choline and acetic acid. In this assay, acetylthiocholine (AChSC) is hydrolyzed by the enzyme, releasing thiocholine containing a sulfhydrylic group able to react with color indicating reagent. Yellowish products were measured spectrophotometrically, the amount of which reflects the activity of AChE. All the procedures were operated according to the instruction of the AChE reagent kit produced by Nanjing Jiancheng Bio-engineering Institute. Mice brain homogenate prepared in saline was used as a source of AChE; mice serum was the source of BChE.
The AChE activity was determined in a reaction mixture containing 200 μL of a solution of AChE (0.415 U/mL in 0.1 M phosphate buffer, pH 8.0), 300 μL of a solution of 5,5′-dithio-bis(2-nitrobenzoic) acid (3.3 mM DTNB in 0.1 M phosphate buffered solution, pH 7.0, containing NaHCO3 6 mM), and 30 μL of a solution of the inhibitor (six to seven concentrations). After incubation for 20 min at 37° C., acetylthiocholine iodide (300 μL of 0.05 mM water solution) was added as the substrate, and AChE activity was determined by UV spectrophotometry from the absorbance changes at […] for 3 min at 25° C. […] BChE inhibitory activity determinations were similarly carried out using butyrylthiocholine iodide (0.05 mM) as the substrate. Results are reported as the means ±SEM of IC50 obtained from at least three independent measures.

T1 sequence (Q03311 30-603): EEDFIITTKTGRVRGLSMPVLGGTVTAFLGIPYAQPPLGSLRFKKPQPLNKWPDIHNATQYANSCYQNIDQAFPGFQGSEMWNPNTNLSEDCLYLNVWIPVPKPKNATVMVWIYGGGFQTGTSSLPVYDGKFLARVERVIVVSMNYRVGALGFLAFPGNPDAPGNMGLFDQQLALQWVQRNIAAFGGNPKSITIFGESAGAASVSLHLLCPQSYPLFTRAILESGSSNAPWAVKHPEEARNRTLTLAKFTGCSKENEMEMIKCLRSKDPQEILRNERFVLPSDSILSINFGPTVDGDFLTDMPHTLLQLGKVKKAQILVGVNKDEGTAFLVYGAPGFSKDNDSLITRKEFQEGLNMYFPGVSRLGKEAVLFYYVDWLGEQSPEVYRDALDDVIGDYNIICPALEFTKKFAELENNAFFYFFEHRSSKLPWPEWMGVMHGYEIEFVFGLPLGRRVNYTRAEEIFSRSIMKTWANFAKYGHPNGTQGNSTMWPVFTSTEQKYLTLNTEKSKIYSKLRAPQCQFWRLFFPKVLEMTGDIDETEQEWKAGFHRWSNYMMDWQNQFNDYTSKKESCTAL

First: CC[C@@]1(c2cccc(O)c2)CCCCN(CCCCCCCN2CCCC[C@@](CC)(c3cccc(O)c3)C2)C1 [(A = CH2, n = 7)]
Second: CC[C@@]1(c2cccc(O)c2)CCCCN(CCCCCCCCN2CCCC[C@@](CC)(c3cccc(O)c3)C2)C1 [(A = CH2, n = 8)]
The IC50 of the first is 1.6-fold higher: 0.102 ± 0.019 µM for the first, 0.063 ± 0.008 µM for the second.

Compared with `CC[C@@]1(c2cccc(O)c2)CCCCN(CCCCCCCCCN2CCCC[C@@](CC)(c3cccc(O)c3)C2)C1` [(A = CH2, n = 9), N,N′-(1′,9′-Nonylene)-bis-(−)-nor-MEP Hydrochloride], `CC[C@@]1(c2cccc(O)c2)CCCCN(CCCCCCCCCCN2CCCC[C@@](CC)(c3cccc(O)c3)C2)C1` [(A = CH2, n = 10)] is 1.7-fold higher in IC50: 0.01 µM for the first, 0.017 ± 0.006 µM for the second.

`CC[C@@]1(c2cccc(O)c2)CCCCN(CCCCCCCCCCCN2CCCC[C@@](CC)(c3cccc(O)c3)C2)C1` [(A = CH2, n = 11)] and `CC[C@@]1(c2cccc(O)c2)CCCCN(CCCCCCCCCCCCN2CCCC[C@@](CC)(c3cccc(O)c3)C2)C1` [(A = CH2, n = 12)] are within error of each other in IC50: 0.074 ± 0.011 µM for the first, 0.1 ± 0.055 µM for the second.

Same assay, conditions: relative to (−)-MEP (hydrochloride)

In the case of `CC[C@@]1(c2cccc(O)c2)CCCCN(CCCCCCCCCN2CCCC[C@@](CC)(c3cccc(O)c3)C2)C1` [(A = CH2, n = 9), N,N′-(1′,9′-Nonylene)-bis-(−)-nor-MEP Hydrochloride], the “BChE inhibition, times more potent than (−)-MEP” value is reported as 1500 times.

Same assay, conditions: relative to rivastigmine

For `CC[C@@]1(c2cccc(O)c2)CCCCN(CCCCCCCCCN2CCCC[C@@](CC)(c3cccc(O)c3)C2)C1` [(A = CH2, n = 9), N,N′-(1′,9′-Nonylene)-bis-(−)-nor-MEP Hydrochloride], the “BChE inhibition, times more potent than rivastigmine” value was 150 times.

Molecular target: T2, AChE-induced Aβ (1-40) aggregation (human recombinant AChE) (Homo sapiens, UniProt P22303)
T2 construct: purchased Sigma-Aldrich
Experiment: Inhibition of AChE-induced Aβ aggregation, thioflavin T fluorescence
Assay type: biochemical
Conditions: extrapolated from inhibition curves; read-out: IC50 ± SEM, AChE-induced Aβ aggregation
Protocol: Aliquots of 2 μL Aβ (1-40) peptide (Biosource), lyophilized from 2 mg/mL HFIP solution and dissolved in DMSO, were incubated for 48 h at room temperature in 0.215 M sodium phosphate buffer (pH 8.0) at a concentration of 230 μM. For coincubation experiments, aliquots (16 μL) of human recombinant AChE (Sigma-Aldrich) (final concentration of 2.3 μM) and AChE in the presence of 2 μL of the tested inhibitors were added. Each assay was run in duplicate. To quantify amyloid fibril formation, the thioflavin T fluorescence method was then applied.
Fluorescence was monitored with excitation at 446 nm and emission at 490 nm. The percent inhibition of the AChE-induced aggregation due to the presence of increasing concentrations of the inhibitor was calculated by the following expression: 100−(IFi/IFo×100), where IFi and IFo were the fluorescence intensities obtained for Aβ plus AChE in the presence and in the absence of inhibitor, respectively, after subtracting the fluorescence of respective blanks. Inhibition curves and linear regression parameters were obtained for each compound, and the IC50 was extrapolated.

T2 sequence (P22303 32-614): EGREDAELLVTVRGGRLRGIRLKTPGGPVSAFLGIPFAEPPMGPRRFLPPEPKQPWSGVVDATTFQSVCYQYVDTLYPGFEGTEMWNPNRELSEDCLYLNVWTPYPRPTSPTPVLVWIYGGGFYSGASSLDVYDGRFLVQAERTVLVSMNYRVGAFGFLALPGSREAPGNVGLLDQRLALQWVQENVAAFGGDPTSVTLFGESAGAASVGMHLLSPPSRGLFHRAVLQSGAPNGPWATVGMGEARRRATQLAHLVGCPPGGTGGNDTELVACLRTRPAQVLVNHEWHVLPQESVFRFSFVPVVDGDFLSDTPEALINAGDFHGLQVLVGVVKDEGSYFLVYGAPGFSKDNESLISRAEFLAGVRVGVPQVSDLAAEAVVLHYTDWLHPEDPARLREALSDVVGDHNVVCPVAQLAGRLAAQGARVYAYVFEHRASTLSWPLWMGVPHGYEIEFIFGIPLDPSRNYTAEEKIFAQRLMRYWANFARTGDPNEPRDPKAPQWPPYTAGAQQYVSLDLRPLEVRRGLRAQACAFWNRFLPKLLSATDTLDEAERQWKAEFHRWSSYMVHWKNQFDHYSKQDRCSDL

With `CC[C@@]1(c2cccc(O)c2)CCCCN(CCCCCCCCCN2CCCC[C@@](CC)(c3cccc(O)c3)C2)C1` [(A = CH2, n = 9), N,N′-(1′,9′-Nonylene)-bis-(−)-nor-MEP Hydrochloride] the IC50 was 79 µM and 79.4 µM.
For `CC[C@@]1(c2cccc(O)c2)CCCCN(CCCCCCCCCCN2CCCC[C@@](CC)(c3cccc(O)c3)C2)C1` [(A = CH2, n = 10)], the IC50 was 83 µM and 83.4 µM.

Same assay, conditions: inhibitor 100 μM; Aβ 230 μM, AChE 2.3 μM, 48 h; read-out: Inhibition (%) 100 μM ± SEM

Going from `CC[C@@]1(c2cccc(O)c2)CCCCN(CCCCCCCCN2CCCC[C@@](CC)(c3cccc(O)c3)C2)C1` [(A = CH2, n = 8)] to `CC[C@@]1(c2cccc(O)c2)CCCCN(CCCCCCCCCN2CCCC[C@@](CC)(c3cccc(O)c3)C2)C1` [(A = CH2, n = 9), N,N′-(1′,9′-Nonylene)-bis-(−)-nor-MEP Hydrochloride], the inhibition at 100 µM rises from 0% to 74.4 ± 4.3%.

Going from `CC[C@@]1(c2cccc(O)c2)CCCCN(CCCCCCCCCCN2CCCC[C@@](CC)(c3cccc(O)c3)C2)C1` [(A = CH2, n = 10)] to `CC[N+](C)(CC)CCC[n+]1c(-c2ccccc2)c2cc(N)ccc2c2ccc(N)cc21` [Propidium iodine, reference compound], the inhibition at 100 µM falls from 66.6 ± 1.7% to 16.7 ± 4.4%.

Same assay, conditions: inhibitor 400 μM; Aβ 230 μM, AChE 2.3 μM, 48 h; read-out: Inhibition (%) 400 μM ± SEM

First: CC[C@@]1(c2cccc(O)c2)CCCCN(CCCCCCCCN2CCCC[C@@](CC)(c3cccc(O)c3)C2)C1 [(A = CH2, n = 8)]
Second: CC[C@@]1(c2cccc(O)c2)CCCCN(CCCCCCCCCN2CCCC[C@@](CC)(c3cccc(O)c3)C2)C1 [(A = CH2, n = 9), N,N′-(1′,9′-Nonylene)-bis-(−)-nor-MEP Hydrochloride]
The inhibition at 400 µM of the first is lower: 0.15 ± 0.2% for the first, 91.7 ± 3.6% for the second.

`CC[C@@]1(c2cccc(O)c2)CCCCN(CCCCCCCCCCN2CCCC[C@@](CC)(c3cccc(O)c3)C2)C1` [(A = CH2, n = 10)] and `CC[N+](C)(CC)CCC[n+]1c(-c2ccccc2)c2cc(N)ccc2c2ccc(N)cc21` [Propidium iodine, reference compound] are within error of each other in inhibition at 400 µM: 81.8 ± 1.2% for the first, 79.2 ± 5.9% for the second.

Same assay, conditions: relative to propidium

In the case of `CC[C@@]1(c2cccc(O)c2)CCCCN(CCCCCCCCCN2CCCC[C@@](CC)(c3cccc(O)c3)C2)C1` [(A = CH2, n = 9), N,N′-(1′,9′-Nonylene)-bis-(−)-nor-MEP Hydrochloride], the “inhibition of AChE-induced Aβ aggregation, factor compared with propidium” value is reported as ~2 times.
With `CC[C@@]1(c2cccc(O)c2)CCCCN(CCCCCCCCCCN2CCCC[C@@](CC)(c3cccc(O)c3)C2)C1` [(A = CH2, n = 10)] the “inhibition of AChE-induced Aβ aggregation, factor compared with propidium” value was ~2 times.

Molecular target: T3, mice brain AChE (Mus musculus, UniProt P21836)
T3 construct: Mice brain homogenate prepared in saline was used as a source of AChE; from tissue; host or cells: mouse brain homogenate
T3 sequence (P21836 32-614): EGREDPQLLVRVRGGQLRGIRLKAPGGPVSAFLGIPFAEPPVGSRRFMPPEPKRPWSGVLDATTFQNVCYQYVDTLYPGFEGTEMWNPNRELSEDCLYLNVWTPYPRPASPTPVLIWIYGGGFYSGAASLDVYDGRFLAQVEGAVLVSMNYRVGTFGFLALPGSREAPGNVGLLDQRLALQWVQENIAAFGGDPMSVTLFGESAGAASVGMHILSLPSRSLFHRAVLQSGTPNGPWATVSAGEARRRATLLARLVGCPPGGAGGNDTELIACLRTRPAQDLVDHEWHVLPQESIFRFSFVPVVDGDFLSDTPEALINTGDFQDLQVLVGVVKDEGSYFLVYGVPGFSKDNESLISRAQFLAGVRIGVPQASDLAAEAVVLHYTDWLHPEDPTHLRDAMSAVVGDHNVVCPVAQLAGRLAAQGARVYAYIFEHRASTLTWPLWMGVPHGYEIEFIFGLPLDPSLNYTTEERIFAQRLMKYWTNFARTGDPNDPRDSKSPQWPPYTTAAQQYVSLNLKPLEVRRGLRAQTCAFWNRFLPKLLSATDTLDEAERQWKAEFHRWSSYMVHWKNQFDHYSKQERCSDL
Experiment: AChE inhibition, Ellman spectrophotometric assay, mice brain homogenate
Assay type: biochemical
Conditions: mean ± SEM, at least three measures; hydrochlorides; 20 min preincubation at 37° C.
Protocol: as §1
After incubation for 20 min at 37° C., acetylthiocholine iodide (300 μL of 0.05 mM water solution) was added as the substrate, and AChE activity was determined by UV spectrophotometry from the absorbance changes at […] for 3 min at 25° C. […] BChE inhibitory activity determinations were similarly carried out using butyrylthiocholine iodide (0.05 mM) as the substrate. Results are reported as the means ±SEM of IC50 obtained from at least three independent measures.

First: CC[C@@]1(c2cccc(O)c2)CCCCN(CCCCCCCN2CCCC[C@@](CC)(c3cccc(O)c3)C2)C1 [(A = CH2, n = 7)]
Second: CC[C@@]1(c2cccc(O)c2)CCCCN(CCCCCCCCN2CCCC[C@@](CC)(c3cccc(O)c3)C2)C1 [(A = CH2, n = 8)]
The IC50 of the first is 3.4-fold higher: 0.27 ± 0.07 µM for the first, 0.079 ± 0.019 µM for the second. The second is the more potent here.

First: CC[C@@]1(c2cccc(O)c2)CCCCN(CCCCCCCCCN2CCCC[C@@](CC)(c3cccc(O)c3)C2)C1 [(A = CH2, n = 9), N,N′-(1′,9′-Nonylene)-bis-(−)-nor-MEP Hydrochloride]
Second: CC[C@@]1(c2cccc(O)c2)CCCCN(CCCCCCCCCCN2CCCC[C@@](CC)(c3cccc(O)c3)C2)C1 [(A = CH2, n = 10)]
The IC50 of the first is 2.4-fold lower: 0.0039 µM for the first, 0.0095 ± 0.0045 µM for the second. The first is the more potent here.

`CC[C@@]1(c2cccc(O)c2)CCCCN(CCCCCCCCCCCN2CCCC[C@@](CC)(c3cccc(O)c3)C2)C1` [(A = CH2, n = 11)] and `CC[C@@]1(c2cccc(O)c2)CCCCN(CCCCCCCCCCCCN2CCCC[C@@](CC)(c3cccc(O)c3)C2)C1` [(A = CH2, n = 12)] are within error of each other in IC50: 0.024 ± 0.008 µM for the first, 0.042 ± 0.02 µM for the second.

Same assay, conditions: mice serum BChE versus mice brain AChE IC50

Going from `CC[C@@]1(c2cccc(O)c2)CCCCN(CCCCCCCN2CCCC[C@@](CC)(c3cccc(O)c3)C2)C1` [(A = CH2, n = 7)] to `CC[C@@]1(c2cccc(O)c2)CCCCN(CCCCCCCCN2CCCC[C@@](CC)(c3cccc(O)c3)C2)C1` [(A = CH2, n = 8)], the AChE selectivity rises from 0.38 to 0.80.

Going from `CC[C@@]1(c2cccc(O)c2)CCCCN(CCCCCCCCCN2CCCC[C@@](CC)(c3cccc(O)c3)C2)C1` [(A = CH2, n = 9), N,N′-(1′,9′-Nonylene)-bis-(−)-nor-MEP Hydrochloride] to `CC[C@@]1(c2cccc(O)c2)CCCCN(CCCCCCCCCCN2CCCC[C@@](CC)(c3cccc(O)c3)C2)C1` [(A = CH2, n = 10)], the AChE selectivity falls from 2.6 to 1.8.

First: CC[C@@]1(c2cccc(O)c2)CCCCN(CCCCCCCCCCCN2CCCC[C@@](CC)(c3cccc(O)c3)C2)C1 [(A = CH2, n = 11)]
Second: CC[C@@]1(c2cccc(O)c2)CCCCN(CCCCCCCCCCCCN2CCCC[C@@](CC)(c3cccc(O)c3)C2)C1 [(A = CH2, n = 12)]
The AChE selectivity of the first is higher: 3.1 for the first, 2.4 for the second.

Same assay, conditions: relative to (−)-MEP

For `CC[C@@]1(c2cccc(O)c2)CCCCN(CCCCCCCCCN2CCCC[C@@](CC)(c3cccc(O)c3)C2)C1` [(A = CH2, n = 9), N,N′-(1′,9′-Nonylene)-bis-(−)-nor-MEP Hydrochloride], the “selectivity for AChE, times that of (−)-MEP” value was 7 times.

Same assay, conditions: relative to (−)-MEP (hydrochloride)

With `CC[C@@]1(c2cccc(O)c2)CCCCN(CCCCCCCCCN2CCCC[C@@](CC)(c3cccc(O)c3)C2)C1` [(A = CH2, n = 9), N,N′-(1′,9′-Nonylene)-bis-(−)-nor-MEP Hydrochloride] the “fold increase in inhibiting mice brain AChE compared with (−)-MEP” value was 10000 fold.

Same assay, conditions: relative to rivastigmine

In the case of `CC[C@@]1(c2cccc(O)c2)CCCCN(CCCCCCCCCN2CCCC[C@@](CC)(c3cccc(O)c3)C2)C1` [(A = CH2, n = 9), N,N′-(1′,9′-Nonylene)-bis-(−)-nor-MEP Hydrochloride], the “fold increase in inhibiting mice brain AChE compared with rivastigmine” value is reported as 1400 fold.

For `CC[C@@]1(c2cccc(O)c2)CCCCN(CCCCCCCCCN2CCCC[C@@](CC)(c3cccc(O)c3)C2)C1` [(A = CH2, n = 9), N,N′-(1′,9′-Nonylene)-bis-(−)-nor-MEP Hydrochloride], the “selectivity for AChE, times that of rivastigmine” value was 9 times.
